Measurements from PubChem BioAssay (NCI).
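In this assay, cells in 96-well plates receive the compound at five concentrations for 48 hours. Endpoints are linearly interpolated between the surrounding concentrations. Here, GI50 denotes the concentration required for 50% inhibition of growth. TGI: concentration producing complete growth inhibition.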

Key:
Assay in all cases: NCI anticancer screen, dose series, 48 h
K-562 leukemia = test system: K-562 leukemia
OVCAR-5 ovarian = test system: OVCAR-5 ovarian
SF-539 CNS = test system: SF-539 CNS
CCRF-CEM leukemia = test system: CCRF-CEM leukemia
UACC-257 melanoma = test system: UACC-257 melanoma
ACHN renal = test system: ACHN renal
OVCAR-8 ovarian = test system: OVCAR-8 ovarian
HCT-15 colon = test system: HCT-15 colon
HOP-62 NSCLC = test system: HOP-62 NSCLC
T-47D breast = test system: T-47D breast
SK-OV-3 ovarian = test system: SK-OV-3 ovarian
HT29 colon = test system: HT29 colon
HOP-92 NSCLC = test system: HOP-92 NSCLC
SF-268 CNS = test system: SF-268 CNS
A498 renal = test system: A498 renal
HCT-116 colon = test system: HCT-116 colon
COLO 205 colon = test system: COLO 205 colon
UACC-62 melanoma = test system: UACC-62 melanoma
MOLT-4 leukemia = test system: MOLT-4 leukemia
PC-3 prostate = test system: PC-3 prostate
SN12C renal = test system: SN12C renal
SF-295 CNS = test system: SF-295 CNS
NCI-H460 lung = test system: NCI-H460 lung
NCI-H522 lung = test system: NCI-H522 lung
SK-MEL-2 melanoma = test system: SK-MEL-2 melanoma
U251 CNS = test system: U251 CNS
BT-549 breast = test system: BT-549 breast
SR leukemia = test system: SR leukemia
LOX IMVI melanoma = test system: LOX IMVI melanoma
IGROV1 ovarian = test system: IGROV1 ovarian
NCI-H226 lung = test system: NCI-H226 lung
DU-145 prostate = test system: DU-145 prostate
NCI/ADR-RES ovarian = test system: NCI/ADR-RES ovarian
M14 melanoma = test system: M14 melanoma
SNB-75 CNS = test system: SNB-75 CNS
CAKI-1 renal = test system: CAKI-1 renal
786-0 renal = test system: 786-0 renal
RXF 393 renal = test system: RXF 393 renal
OVCAR-4 ovarian = test system: OVCAR-4 ovarian
TK-10 renal = test system: TK-10 renal
UO-31 renal = test system: UO-31 renal
SW-620 colon = test system: SW-620 colon
NCI-H23 lung = test system: NCI-H23 lung
MALME-3M melanoma = test system: MALME-3M melanoma
HS 578T breast = test system: HS 578T breast
OVCAR-3 ovarian = test system: OVCAR-3 ovarian
RPMI-8226 leukemia = test system: RPMI-8226 leukemia
SK-MEL-5 melanoma = test system: SK-MEL-5 melanoma
SK-MEL-28 melanoma = test system: SK-MEL-28 melanoma
A549 NSCLC = test system: A549 NSCLC
EKVX NSCLC = test system: EKVX NSCLC
MDA-MB-231 breast = test system: MDA-MB-231 breast
HCC-2998 colon = test system: HCC-2998 colon
MCF7 breast = test system: MCF7 breast
SNB-19 CNS = test system: SNB-19 CNS
KM12 colon = test system: KM12 colon
MDA-MB-435 = test system: MDA-MB-435

In the case of `COc1cc2c3c(n(CCCN(C)C)c(=O)c2cc1OC)-c1ccccc1C3=O`, the GI50 (K-562 leukemia) is reported as 4.39 µM, the TGI (K-562 leukemia) is reported as 24.4 µM and the GI50 (OVCAR-5 ovarian) is reported as > 91.6 µM. The TGI (OVCAR-5 ovarian) was > 100 µM, the GI50 (SF-539 CNS) was 4.47 µM and the TGI (SF-539 CNS) was 28.7 µM. The GI50 (CCRF-CEM leukemia) was 0.24 µM, the TGI (CCRF-CEM leukemia) was 1.73 µM and the GI50 (UACC-257 melanoma) was > 100 µM. For the same compound, the TGI (UACC-257 melanoma) was > 100 µM, the GI50 (ACHN renal) was 6.9 µM and the TGI (ACHN renal) was 20.8 µM. The GI50 (OVCAR-8 ovarian) was 7.87 µM, the TGI (OVCAR-8 ovarian) was > 100 µM and the GI50 (HCT-15 colon) was 17.8 µM. The TGI (HCT-15 colon) was > 53.3 µM, the GI50 (HOP-62 NSCLC) was 3.57 µM and the TGI (HOP-62 NSCLC) was > 89.8 µM. The GI50 (T-47D breast) was 30.8 µM, the TGI (T-47D breast) was > 100 µM and the GI50 (SK-OV-3 ovarian) was 29.4 µM. The TGI (SK-OV-3 ovarian) was > 100 µM, the GI50 (HT29 colon) was 0.738 µM and the TGI (HT29 colon) was 16.6 µM. For the same compound, the GI50 (HOP-92 NSCLC) was 23.2 µM, the TGI (HOP-92 NSCLC) was > 100 µM and the GI50 (SF-268 CNS) was 7.69 µM. For the same compound, the TGI (SF-268 CNS) was > 100 µM, the GI50 (A498 renal) was 24.7 µM and the TGI (A498 renal) was > 73.9 µM. The GI50 (HCT-116 colon) was 3.71 µM, the TGI (HCT-116 colon) was 16.6 µM and the GI50 (COLO 205 colon) was 1.04 µM. The TGI (COLO 205 colon) was > 100 µM, the GI50 (UACC-62 melanoma) was 1.48 µM and the TGI (UACC-62 melanoma) was 19.1 µM. The GI50 (MOLT-4 leukemia) was 0.463 µM, the TGI (MOLT-4 leukemia) was 1.73 µM and the GI50 (PC-3 prostate) was 9.02 µM. For the same compound, the TGI (PC-3 prostate) was > 48.7 µM, the GI50 (SN12C renal) was 7.16 µM and the TGI (SN12C renal) was 72.3 µM. The GI50 (SF-295 CNS) was 1.26 µM, the GI50 (NCI-H460 lung) was 3.51 µM and the TGI (NCI-H460 lung) was 21.6 µM. The GI50 (NCI-H522 lung) was 5.59 µM, the TGI (NCI-H522 lung) was > 100 µM and the GI50 (SK-MEL-2 melanoma) was > 100 µM. The TGI (SK-MEL-2 melanoma) was > 100 µM, the GI50 (U251 CNS) was 12.2 µM and the TGI (U251 CNS) was > 55.9 µM. The GI50 (BT-549 breast) was 21.4 µM, the TGI (BT-549 breast) was > 100 µM and the GI50 (SR leukemia) was 0.184 µM. It also gave a TGI (SR leukemia) of 1.82 µM, a GI50 (LOX IMVI melanoma) of 4.66 µM and a TGI (LOX IMVI melanoma) of 19.2 µM. For the same compound, the GI50 (IGROV1 ovarian) was 1.61 µM, the TGI (IGROV1 ovarian) was > 51.7 µM and the GI50 (NCI-H226 lung) was 18.6 µM. For the same compound, the TGI (NCI-H226 lung) was > 100 µM, the GI50 (DU-145 prostate) was 5.05 µM and the TGI (DU-145 prostate) was 24.7 µM. For the same compound, the GI50 (NCI/ADR-RES ovarian) was 5.94 µM, the TGI (NCI/ADR-RES ovarian) was > 49.1 µM and the GI50 (M14 melanoma) was 3.83 µM. For the same compound, the TGI (M14 melanoma) was > 88.2 µM, the GI50 (SNB-75 CNS) was 6.9 µM and the TGI (SNB-75 CNS) was > 100 µM. The GI50 (CAKI-1 renal) was 12.7 µM, the TGI (CAKI-1 renal) was > 77.9 µM and the GI50 (786-0 renal) was 16 µM. It also gave a TGI (786-0 renal) of 73.9 µM, a GI50 (RXF 393 renal) of 6.68 µM and a TGI (RXF 393 renal) of 24.7 µM. It also gave a GI50 (OVCAR-4 ovarian) of 6.68 µM, a TGI (OVCAR-4 ovarian) of 53.5 µM and a GI50 (TK-10 renal) of 38 µM. For the same compound, the TGI (TK-10 renal) was > 100 µM, the GI50 (UO-31 renal) was 16.7 µM and the TGI (UO-31 renal) was 97.7 µM. The GI50 (SW-620 colon) was 2.11 µM, the TGI (SW-620 colon) was 66 µM and the GI50 (NCI-H23 lung) was 10.6 µM. For the same compound, the TGI (NCI-H23 lung) was > 72 µM, the GI50 (MALME-3M melanoma) was 7.38 µM and the TGI (MALME-3M melanoma) was > 100 µM. For the same compound, the GI50 (HS 578T breast) was 99.7 µM, the TGI (HS 578T breast) was > 100 µM and the GI50 (OVCAR-3 ovarian) was 5.83 µM. The TGI (OVCAR-3 ovarian) was 54.8 µM, the GI50 (RPMI-8226 leukemia) was 0.238 µM and the TGI (RPMI-8226 leukemia) was 1.53 µM. It also gave a GI50 (SK-MEL-5 melanoma) of 10.1 µM, a TGI (SK-MEL-5 melanoma) of 47 µM and a GI50 (SK-MEL-28 melanoma) of 8.5 µM. For the same compound, the TGI (SK-MEL-28 melanoma) was > 65 µM, the GI50 (A549 NSCLC) was 10.3 µM and the TGI (A549 NSCLC) was > 54.6 µM. For the same compound, the GI50 (EKVX NSCLC) was > 43.7 µM, the TGI (EKVX NSCLC) was > 72.7 µM and the GI50 (MDA-MB-231 breast) was 10.6 µM. The TGI (MDA-MB-231 breast) was 23.6 µM, the GI50 (HCC-2998 colon) was 3.17 µM and the TGI (HCC-2998 colon) was 18.6 µM. The GI50 (MCF7 breast) was 2.34 µM, the TGI (MCF7 breast) was > 53.4 µM and the GI50 (SNB-19 CNS) was 8.28 µM. For the same compound, the TGI (SNB-19 CNS) was > 71.3 µM, the GI50 (KM12 colon) was 5.61 µM and the TGI (KM12 colon) was 41.9 µM. For the same compound, the GI50 (MDA-MB-435) was 19.1 µM and the TGI (MDA-MB-435) was > 100 µM.
